# Laboratory results as given in ChEMBL document CHEMBL4411258, “Novel natural compounds from endophytic fungi with anticancer activity” (Eur J Med Chem, 2018).
# Experiments:
# K562 = assay: Cytotoxicity against human K562 cells by trypan blue exclusion assay; format: functional, cell-based
# HL-60 [1] = assay: Cytotoxicity against human HL60 cells by trypan blue exclusion assay; format: functional, cell-based
# NCI-H460 = assay: Cytotoxicity against human NCI-H460 cells; format: functional, cell-based
# [2] = Inhibition of TNFalpha-induced NFkappaB (unknown origin) activation expressed in HEK293 cells preincubated for 1 hr followed by TNFalpha stimulation and measured after 1 hr by dual luciferase reporter gene assay; format: cell-based; conditions: Homo sapiens
# NB-4 = assay: Cytotoxicity against human NB4 cells by MTT assay; format: functional, cell-based
# MCF7 [3] = assay: Cytotoxicity against human MCF7 cells by MTT assay; format: functional, cell-based
# A549 [4] = assay: Cytotoxicity against human A549 cells by MTT assay; format: functional, cell-based
# SH-SY5Y = assay: Cytotoxicity against human SH-SY5Y cells by MTT assay; format: functional, cell-based
# PC-3 = assay: Cytotoxicity against human PC3 cells by MTT assay; format: functional, cell-based
# HL-60 [5] = assay: Cytotoxicity against human HL60 cells by CCK8 assay; format: functional, cell-based
# SMMC-7721 = assay: Cytotoxicity against human SMMC7721 cells by CCK8 assay; format: functional, cell-based
# A549 [6] = assay: Cytotoxicity against human A549 cells by CCK8 assay; format: functional, cell-based
# SW480 = assay: Cytotoxicity against human SW480 cells by CCK8 assay; format: functional, cell-based
# MCF7 [7] = assay: Cytotoxicity against human MCF7 cells by CCK8 assay; format: functional, cell-based
# RPMI-8226 = assay: Cytotoxicity against human RPMI8226 cells after 48 hrs by MTT assay; format: functional, cell-based; conditions: RPMI-8226, 48 h
# [8] = Inhibition of TNFalpha-induced NFkappaB (unknown origin) activation expressed in HEK293 cells after 6 hrs by luciferase reporter gene based assay; format: cell-based; conditions: Homo sapiens, HEK293, 6 h
# A2780 [9] = assay: Cytotoxicity against human A2780 cells by MTT assay; format: functional, cell-based
# T47D = assay: Cytotoxicity against human T47D cells after 48 hrs by MTT assay; format: functional, cell-based
# HeLa = assay: Cytotoxicity against human HeLa cells by MTT assay; format: functional, cell-based
# HepG2 [10] = assay: Cytotoxicity against human HepG2 cells after 24 hrs by MTT assay; format: functional, cell-based; conditions: HepG2, 24 h
# MKN-45 = assay: Cytotoxicity against human MKN45 cells after 24 hrs by MTT assay; format: functional, cell-based; conditions: MKN-45, 24 h
# A549 [11] = assay: Cytotoxicity against human A549 cells after 24 hrs by MTT assay; format: functional, cell-based; conditions: A549, 24 h
# HL-60 [12] = assay: Cytotoxicity against human HL60 cells after 24 hrs by MTT assay; format: functional, cell-based; conditions: HL-60, 24 h
# LoVo = assay: Cytotoxicity against human LoVo cells after 24 hrs by MTT assay; format: functional, cell-based
# L5178Y = assay: Cytotoxicity against mouse L5178Y cells by MTT assay; format: functional, cell-based
# PC-12 = assay: Cytotoxicity against rat PC12 cells by MTT assay; format: functional, cell-based
# A2780 [13] = assay: Cytotoxicity against human A2780 cells after 72 hrs by MTT assay; format: functional, cell-based; conditions: A2780, 72 h
# [14] = Inhibition of RANKL-induced NFkappaB (unknown origin) activation expressed in mouse RAW264.7 cells preincubated for 1 hr followed by RANKL stimulation and measured after 6 hrs by luciferase reporter gene based assay; format: cell-based
# MDA-MB-435 [15] = assay: Cytotoxicity against human MDA-MB-435 cells by MTT assay; format: functional, cell-based
# SGC-7901 = assay: Cytotoxicity against human SGC7901 cells by MTT assay; format: functional, cell-based
# HL-60 [16] = assay: Cytotoxicity against human HL60 cells by MTT assay; format: functional, cell-based
# [17] = target: Polyunsaturated fatty acid 5-lipoxygenase (Homo sapiens) (UniProt P09917); assay: Inhibition of 5-LOX (unknown origin) at 30 ug/ml relative to control
# HepG2 [18] = assay: Cytotoxicity against human HepG2 cells after 72 hrs by MTT assay; format: functional, cell-based; conditions: HepG2, 72 h
# HCT-116 = assay: Cytotoxicity against human HCT116 cells after 72 hrs by MTT assay; format: functional, cell-based; conditions: HCT-116, 72 h
# MDA-MB-435 [19] = assay: Cytotoxicity against human MDA-MB-435 cells after 72 hrs by MTT assay; format: functional, cell-based; conditions: MDA-MB-435, 72 h
# KB = assay: Cytotoxicity against human KB cells after 48 hrs by neutral red dye based assay; format: functional, cell-based
# SK-OV-3 = assay: Cytotoxicity against human SKOV3 cells after 48 hrs by neutral red dye based assay; format: functional, cell-based; conditions: SK-OV-3, 48 h
# BT-549 = assay: Cytotoxicity against human BT549 cells after 48 hrs by neutral red dye based assay; format: functional, cell-based; conditions: BT-549, 48 h
# Polyunsaturated fatty acid 5-lipoxygenase (Homo sapiens), sequence (P09917 whole entry): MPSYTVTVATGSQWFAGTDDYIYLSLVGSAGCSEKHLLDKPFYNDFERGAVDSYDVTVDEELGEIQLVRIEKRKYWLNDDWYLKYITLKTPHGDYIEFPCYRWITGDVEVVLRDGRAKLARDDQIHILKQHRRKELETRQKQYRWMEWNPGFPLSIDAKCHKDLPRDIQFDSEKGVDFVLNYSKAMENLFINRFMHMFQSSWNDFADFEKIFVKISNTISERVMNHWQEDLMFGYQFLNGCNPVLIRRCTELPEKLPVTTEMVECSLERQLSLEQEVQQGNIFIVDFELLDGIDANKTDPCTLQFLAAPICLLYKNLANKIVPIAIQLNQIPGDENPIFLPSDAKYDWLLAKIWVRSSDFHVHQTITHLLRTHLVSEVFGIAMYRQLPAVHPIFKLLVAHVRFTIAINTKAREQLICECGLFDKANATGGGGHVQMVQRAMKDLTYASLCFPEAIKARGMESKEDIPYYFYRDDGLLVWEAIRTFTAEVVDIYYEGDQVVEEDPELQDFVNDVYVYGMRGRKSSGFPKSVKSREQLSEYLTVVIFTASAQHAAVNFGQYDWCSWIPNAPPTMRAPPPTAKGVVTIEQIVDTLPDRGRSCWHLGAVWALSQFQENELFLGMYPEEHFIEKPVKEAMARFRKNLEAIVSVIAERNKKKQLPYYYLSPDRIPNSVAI
smiles,measurement,setting,value
CCCCc1c(OC)cc(=O)oc1CO,IC50,K562,0.9 µg/mL
same,IC50,HL-60 [1],0.45 µg/mL
CC1(C)C=Cc2cc3c(cc2O1)NC(=O)[C@]31C[C@@]23NC(=O)[C@]4(CCCN4C2=O)C[C@@H]3C1(C)C,IC50,NCI-H460,55.9 µM
C[C@@H]1CO[C@@]2(O)[C@@H]1C[C@]1(C)[C@@H](C)CC[C@H](O)[C@@]13O[C@@H]23,IC50,[2],7.11 µM
COC(=O)[C@@H]1c2c(oc3cc(CCO)cc(O)c3c2=O)C=C[C@H]1O,IC50,NB-4,2.2 µM
same,IC50,MCF7 [3],6.5 µM
same,IC50,A549 [4],5.6 µM
same,IC50,SH-SY5Y,4.1 µM
same,IC50,PC-3,2.8 µM
C=C1[C@@H](C)[C@H]2[C@H](Cc3ccccc3)NC(=O)[C@]23c2ccc(o2)CCC[C@@H](C)C/C=C/[C@H]3[C@@H]1O,IC50,HL-60 [5],7.7 to 15.8 µM
same,IC50,SMMC-7721,7.7 to 15.8 µM
same,IC50,A549 [6],7.7 to 15.8 µM
same,IC50,SW480,7.7 to 15.8 µM
same,IC50,MCF7 [7],7.7 to 15.8 µM
CO[C@H]1C[C@H](O)C2=C(C[C@H]3C(=C(C)C)CC[C@@]3(C)O2)C1=O,IC50,RPMI-8226,92.1 µM
CCCCC[C@@H]1OC2=C(C(=O)N(OC)C2C[S@+]([O-])C[C@@H](O)C(=O)O)[C@H](O)[C@@]1(C)O (stereo not given in full),IC50,[8],1.5 µM
CCCCC[C@@H]1OC2=C(C(=O)N(OC)C2CSC[C@@H](O)C(=O)O)[C@H](O)[C@@]1(C)O (stereo not given in full),IC50,[8],7.1 µM
O=C1N[C@H](Cc2ccccc2)C(=O)N[C@H]1Cc1cn([C@]23C[C@H]4C(=O)N[C@H](Cc5ccccc5)C(=O)N4[C@H]2Nc2ccccc23)c2ccccc12,IC50,A2780 [9],56.7 µM
C=C1[C@@H](C)[C@H]2[C@H](Cc3ccccc3)NC(=O)[C@]23C(=O)/C=C/C(=O)CCC[C@@H](C)C/C=C/[C@H]3[C@@H]1O,IC50,HL-60 [5],7.7 to 15.8 µM
same,IC50,SMMC-7721,7.7 to 15.8 µM
same,IC50,A549 [6],7.7 to 15.8 µM
same,IC50,SW480,7.7 to 15.8 µM
same,IC50,MCF7 [7],7.7 to 15.8 µM
CCCC[C@H](C)/C=C(C)/C=C/C(=O)O[C@@]1(C)C(=O)C=C2C=C(/C=C/C(=O)O)OC=C2C1=O,IC50,T47D,1 to 10 µM
C[C@@H]1CC[C@@]23[C@H](C)CC[C@@H](C[C@H]2[C@]2(C)CC(=O)[C@H]12)C3(C)C,IC50,MCF7 [3],30.7 µM
same,IC50,HeLa,30.1 µM
COc1cc(=O)oc(C)c1CCC(C)=O,IC50,K562,0.3 µg/mL
same,IC50,HL-60 [1],0.18 µg/mL
COc1ccc2c3c([nH]c2c1)C(C=C(C)C)N1C(=O)C2CCCN2C(=O)C1(OC)C3OC(=O)c1cc(O)cc(OC)c1C(=O)c1c(O)cc(C)cc1OC (stereo not given),IC50,HepG2 [10],47.5 µM
CC[C@@H](O)[C@H](O)[C@@H]1C[C@](O)(OC)CC(=O)O1,IC50,MKN-45,< 200 µM
same,IC50,A549 [11],< 200 µM
same,IC50,HL-60 [12],< 200 µM
same,IC50,LoVo,< 200 µM
COc1cccc2c1C(=O)c1c(O)c3c(c(O)c1C2=O)C[C@@](O)(C(=O)CO)C[C@@H]3O[C@H]1C[C@H](N)[C@H](O)[C@H](C)O1 [DOXORUBICIN],IC50,L5178Y,4.6 µM
same,IC50,PC-12,5.71 µM
O=C1N[C@@]2(Cc3ccccc3O2)C(=O)N/C1=C\c1ccccc1O,IC50,A2780 [13],59 µM
COC(=O)c1cc(OC)c(O)c2oc3c(c(=O)c12)[C@H](OC)O[C@@H](C)C3,IC50,[14],30 to 46 µM
COC(=O)c1cc(OC)cc2c1C(=O)[C@@H]([C@@H](O)CC(C)=O)CO2,IC50,[14],30 to 46 µM
CC1=C[C@@H]2/C=C/C[C@H](C)/C=C(\C)[C@@H](O)C(=O)/C=C/C(=O)[C@]23C(=O)N[C@H]2Cc4c([nH]c5ccccc45)[C@@]1(C)[C@@H]23,IC50,MDA-MB-435 [15],7.55 µM
same,IC50,SGC-7901,7.32 µM
same,IC50,A549 [4],16.1 µM
COC1=C2c3cc(OC)cc(O)c3C(=O)O[C@@]2(C)CC1=O,IC50,HL-60 [16],> 200 µM
CCCCC/C=C/C1=C(CO)[C@@H](O)[C@H]2O[C@@]2(C/C=C(\C)C(=O)O)[C@H]1O,inhibition,[17],67.4%
O=Cc1cc(/C=C/c2cc(O)cc(O)c2)ccc1O,IC50,HepG2 [18],< 50 µM
same,IC50,HCT-116,< 50 µM
same,IC50,MDA-MB-435 [19],< 50 µM
CC1=C(C)C2=CC(=O)C3=C(C(=O)c4oc(C)cc4C3=O)[C@@]2(C)CC1=O,IC50,HL-60 [16],12.5 µM
C=C(CC[C@@H](C)[C@H]1CC=C2C3=C([C@@H](O)[C@H](OC(C)=O)[C@@]21C)[C@@]1(C)C[C@@H](O)[C@H](OC(=O)c2ccc(O)cc2)C(C)(C)[C@@H]1CC3)C(C)C,IC50,KB,2.54 µM
same,IC50,SK-OV-3,3.01 µM
same,IC50,BT-549,2.46 µM
